Data: PubChem BioAssay (NCI)
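Five concentrations, 48 hours, 96-well plates. GI50 marks 50% less growth. TGI: total growth inhibition.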

Columns and labels:
Experiment in all cases: DTP human tumour cell line panel, 48 h; in the data active = GI50 below about 0.43 µM; inactive = the rest
[1] = tested on: SF-539 CNS
[2] = tested on: OVCAR-8 ovarian
[3] = tested on: EKVX NSCLC
[4] = tested on: TK-10 renal
[5] = tested on: HCT-15 colon
[6] = tested on: A549 NSCLC
[7] = tested on: IGROV1 ovarian
[8] = tested on: NCI-H522 lung
[9] = tested on: SNB-19 CNS
[10] = tested on: BT-549 breast
[11] = tested on: MDA-MB-231 breast
[12] = tested on: XF 498 CNS
[13] = tested on: SNB-78 CNS
[14] = tested on: NCI-H23 lung
[15] = tested on: UACC-257 melanoma
[16] = tested on: 786-0 renal
[17] = tested on: M14 melanoma
[18] = tested on: NCI-H226 lung
[19] = tested on: A498 renal
[20] = tested on: ACHN renal
[21] = tested on: UO-31 renal
[22] = tested on: SK-MEL-2 melanoma
[23] = tested on: MCF7 breast
[24] = tested on: OVCAR-5 ovarian
[25] = tested on: SN12C renal
[26] = tested on: RXF 393 renal
[27] = tested on: COLO 205 colon
[28] = tested on: K-562 leukemia
[29] = tested on: HCT-116 colon
[30] = tested on: SW-620 colon
[31] = tested on: KM12 colon
[32] = tested on: RPMI-8226 leukemia
[33] = tested on: SK-MEL-5 melanoma
[34] = tested on: CAKI-1 renal
[35] = tested on: DU-145 prostate
[36] = tested on: SK-OV-3 ovarian
[37] = tested on: SR leukemia
[38] = tested on: HT29 colon
[39] = tested on: T-47D breast
[40] = tested on: SF-295 CNS
[41] = tested on: MOLT-4 leukemia
[42] = tested on: M19-MEL melanoma
[43] = tested on: PC-3 prostate
[44] = tested on: HL-60(TB) leukemia
[45] = tested on: HOP-18 NSCLC
[46] = tested on: HS 578T breast
[47] = tested on: OVCAR-3 ovarian
[48] = tested on: HOP-92 NSCLC
[49] = tested on: HOP-62 NSCLC
[50] = tested on: HCC-2998 colon
[51] = tested on: SK-MEL-28 melanoma
[52] = tested on: DLD-1 colon
[53] = tested on: SNB-75 CNS
[54] = tested on: KM20L2 colon
[55] = tested on: CCRF-CEM leukemia
[56] = tested on: OVCAR-4 ovarian
[57] = tested on: U251 CNS
[58] = tested on: LOX IMVI melanoma
[59] = tested on: NCI-H460 lung
[60] = tested on: MDA-MB-435
[61] = tested on: MALME-3M melanoma
[62] = tested on: DMS 273 small cell lung
[63] = tested on: SF-268 CNS
[64] = tested on: NCI/ADR-RES ovarian
[65] = tested on: LXFL 529 NSCLC
[66] = tested on: UACC-62 melanoma
[67] = tested on: DMS 114 small cell lung
[68] = tested on: MDA-N

O=c1c2ccccc2n2n1CC(O)C2 (stereo unspecified)
inactive: GI50 [10] > 100 µM | GI50 [11] > 100 µM | GI50 [19] > 100 µM | GI50 [23] > 100 µM | GI50 [35] > 100 µM | GI50 [39] > 100 µM | GI50 [43] > 100 µM | GI50 [46] > 100 µM | GI50 [60] > 100 µM | GI50 [64] > 100 µM
> 100 µM: TGI [1] | TGI [2] | TGI [3] | TGI [4] | TGI [5] | TGI [6] | TGI [7] | TGI [8] | TGI [9] | TGI [10] | TGI [11] | TGI [12] | TGI [13] | TGI [14] | TGI [15] | TGI [16] | TGI [17] | TGI [18] | TGI [19] | TGI [21] | TGI [22] | TGI [23] | TGI [24] | TGI [25] | TGI [26] | TGI [27] | TGI [28] | TGI [29] | TGI [30] | TGI [31] | TGI [32] | TGI [33] | TGI [34] | TGI [35] | TGI [36] | TGI [37] | TGI [38] | TGI [39] | TGI [40] | TGI [41] | TGI [42] | TGI [43] | TGI [44] | TGI [45] | TGI [46] | TGI [47] | TGI [48] | TGI [49] | TGI [50] | TGI [51] | TGI [52] | TGI [53] | TGI [54] | TGI [55] | TGI [56] | TGI [57] | TGI [58] | TGI [59] | TGI [60] | TGI [61] | TGI [62] | TGI [63] | TGI [64]
> 24.6 µM: TGI [20]

N#C/C(=C\c1ccc(O)c(O)c1)C(=O)NC1CCC(CC2CCC(NC(=O)/C(C#N)=C/c3ccc(O)c(O)c3)CC2)CC1 (stereo unspecified)
5.23 µM: TGI [42]
1.69 µM: TGI [53]
2.92 µM: TGI [31]
1.22 µM: TGI [58]
10.4 µM: TGI [2]
4.24 µM: TGI [20]
15 µM: TGI [61]
> 41.4 µM: TGI [36]
4.71 µM: TGI [8]
2.51 µM: TGI [27]
12.8 µM: TGI [26] | TGI [33]
4.97 µM: TGI [21]
16.5 µM: TGI [12]
> 25.2 µM: TGI [32]
32.7 µM: TGI [5]
> 29.3 µM: TGI [34]
3.36 µM: TGI [37]
4.06 µM: TGI [49]
> 40.4 µM: TGI [52]
2.67 µM: TGI [1]
4.93 µM: TGI [28]
3 µM: TGI [38]
> 29.9 µM: TGI [9]
45.1 µM: TGI [3]
4.09 µM: TGI [24]
> 100 µM: TGI [19] | TGI [45] | TGI [51]
7.23 µM: TGI [25]
7.43 µM: TGI [50]
> 54.7 µM: TGI [4]
1.13 µM: TGI [59]
28.1 µM: TGI [65]
6.31 µM: TGI [48]
6.09 µM: TGI [44]
3.55 µM: TGI [40]
0.642 µM: TGI [29]
3.81 µM: TGI [54]
6.83 µM: TGI [17]
> 24.3 µM: TGI [15]
4.5 µM: TGI [57]
25.7 µM: TGI [30]
40.6 µM: TGI [56]
5.37 µM: TGI [13]
7.37 µM: TGI [16]
> 57.5 µM: TGI [41]
5.46 µM: TGI [63]
3.96 µM: TGI [47]
3.89 µM: TGI [14] | TGI [22]
4.36 µM: TGI [55]
14.3 µM: TGI [18]
4.56 µM: TGI [6]
0.832 µM: TGI [62]
3.07 µM: TGI [66]

Nc1nncc2c1ccn2C1OC(CO)C(O)C1O (stereo unspecified)
> 100 µM: TGI [1] | TGI [2] | TGI [3] | TGI [4] | TGI [5] | TGI [65] | TGI [6] | TGI [7] | TGI [9] | TGI [67] | TGI [13] | TGI [66] | TGI [14] | TGI [15] | TGI [17] | TGI [18] | TGI [19] | TGI [20] | TGI [21] | TGI [22] | TGI [24] | TGI [25] | TGI [26] | TGI [27] | TGI [28] | TGI [29] | TGI [30] | TGI [31] | TGI [32] | TGI [33] | TGI [36] | TGI [37] | TGI [38] | TGI [40] | TGI [41] | TGI [42] | TGI [44] | TGI [45] | TGI [47] | TGI [48] | TGI [49] | TGI [50] | TGI [51] | TGI [52] | TGI [53] | TGI [54] | TGI [55] | TGI [56] | TGI [57] | TGI [58] | TGI [59] | TGI [61] | TGI [62] | TGI [63]

Cc1ccc(C[P+]2(c3ccccc3)CCCCC2)cc1
> 100 µM: TGI [1] | TGI [2] | TGI [3] | TGI [4] | TGI [5] | TGI [6] | TGI [7] | TGI [8] | TGI [9] | TGI [14] | TGI [16] | TGI [17] | TGI [18] | TGI [19] | TGI [20] | TGI [21] | TGI [24] | TGI [25] | TGI [26] | TGI [28] | TGI [29] | TGI [30] | TGI [31] | TGI [36] | TGI [38] | TGI [40] | TGI [41] | TGI [49] | TGI [51] | TGI [52] | TGI [54] | TGI [55] | TGI [56] | TGI [58] | TGI [59] | TGI [61] | TGI [62]
80.6 µM: TGI [22]
50.5 µM: TGI [42]
60.8 µM: TGI [50]
42.4 µM: TGI [57]
24.4 µM: TGI [33]
30.2 µM: TGI [27]
32.6 µM: TGI [15]
76.9 µM: TGI [53]
90.9 µM: TGI [37]
66.2 µM: TGI [66]
46.8 µM: TGI [32]
64.1 µM: TGI [67]
0.537 µM: TGI [12]
92.4 µM: TGI [13]
85.6 µM: TGI [65]
33.6 µM: TGI [44]

O=C(O)Cc1cccc2c1Oc1ccccc1S2
> 100 µM: TGI [1] | TGI [2] | TGI [3] | TGI [4] | TGI [5] | TGI [65] | TGI [6] | TGI [7] | TGI [9] | TGI [67] | TGI [13] | TGI [66] | TGI [14] | TGI [15] | TGI [16] | TGI [17] | TGI [18] | TGI [19] | TGI [20] | TGI [21] | TGI [22] | TGI [25] | TGI [26] | TGI [27] | TGI [28] | TGI [29] | TGI [30] | TGI [31] | TGI [32] | TGI [33] | TGI [36] | TGI [38] | TGI [40] | TGI [41] | TGI [42] | TGI [44] | TGI [47] | TGI [48] | TGI [49] | TGI [50] | TGI [51] | TGI [52] | TGI [53] | TGI [54] | TGI [55] | TGI [56] | TGI [57] | TGI [58] | TGI [59] | TGI [61] | TGI [62] | TGI [63]

N=c1nc2n(cc1F)[C@@H]1O[C@H](CO)[C@@H](O)[C@@H]1O2
> 95 µM: TGI [53]
> 77.2 µM: TGI [1]
> 55.8 µM: TGI [14]
7.81 µM: TGI [17]
> 96.9 µM: TGI [27]
> 73.7 µM: TGI [37]
> 38.9 µM: TGI [16]
> 92.7 µM: TGI [7]
> 12.3 µM: TGI [55]
> 65.1 µM: TGI [48]
> 100 µM: TGI [2] | TGI [3] | TGI [4] | TGI [5] | TGI [65] | TGI [6] | TGI [9] | TGI [10] | TGI [11] | TGI [12] | TGI [13] | TGI [66] | TGI [15] | TGI [18] | TGI [19] | TGI [22] | TGI [23] | TGI [24] | TGI [25] | TGI [28] | TGI [29] | TGI [30] | TGI [31] | TGI [32] | TGI [34] | TGI [35] | TGI [36] | TGI [38] | TGI [40] | TGI [68] | TGI [42] | TGI [43] | TGI [45] | TGI [46] | TGI [47] | TGI [49] | TGI [50] | TGI [51] | TGI [52] | TGI [54] | TGI [56] | TGI [58] | TGI [60] | TGI [62] | TGI [63] | TGI [64]
65.2 µM: TGI [39]
> 91.9 µM: TGI [57]
> 36 µM: TGI [59]
18.9 µM: TGI [41]
> 34.4 µM: TGI [20]
> 42.6 µM: TGI [21]
> 34 µM: TGI [61]
> 56.2 µM: TGI [26]
> 74.7 µM: TGI [8] | TGI [33]
> 40.9 µM: TGI [44]
